# Measured values from patent US20260262644A1, “Antifungal compositions comprising natamycin” (Patent Nata B.V., priority 2023, published 2026).
# Tests used:
# [1] = tested on: Pythium ultimum; test: Mycelium growth on PDA petri dishes containing natamycin and/or solvent; synergy by Colby equation; format: cell-based
# From the text: The Colby equation (Colby, 1967. Weeds 15: 20-22) calculates the expected antifungal activity (E in %) of a combination comprising more than one active ingredients:
# wherein X and Y are the observed antifungal activities (in %) of the individual active ingredients x and y, respectively. If the observed antifungal activity (O in %) of the combination exceeds the expected antifungal activity (E in %) of the combination and the synergy factor O/E is thus >1.0, the combined application of the active ingredients and solvent leads to a synergistic antifungal effect.
# Agar medium was prepared by mixing in a 100 ml Duran bottle 3.9 g of potato dextrose agar (PDA; Carl-Roth GmbH+Co. KG, Karlsruhe, Germany) with 100 ml deionized water and autoclaving the Duran bottle at 120° C. for 15 minutes. After autoclaving, the solution was cooled by putting it in a 50° C. oven for about two hours. Afterward the semi-liquid PDA solution was carefully mixed with natamycin and/or solvent dosages as specified in Table 2 (left column). The medium in the Duran bottle was divided over 5 petri dishes (90×15 mm), 20 ml per petri dish by using 25 ml serological pipets (ROTILABO®; Carl-Roth). Each natamycin and/or solvent treatment was performed in five fold.
# Hereafter, a circular agar mycelium plug (circular segment with a height on 5 mm of agar, fully grown with fresh Pythium ultimum mycelium, which was cut out of a petri dish with the broad side of a yellow pipette tip (Greiner Bio-One, 200 μl tips) with a diameter of 5 mm, was placed in the center of the petri dish. Hereafter the petri dishes were placed in the incubator at 22° C. Measurement of the fungal growth was done using caliper.
# The solvent levels and the period after which the assessments were made are presented as specified for the different solvents are presented in Table 2 below. Synergistic calculation was done using the Colby equation. Experiment was performed in 5-fold.
# [2] = tested on: Botrytis cinerea; test: as above; format: cell-based; settings: 1 day after plug
# [3] = Solubility of natamycin in solvents (HPLC); format: physicochemical
# Method: The solubility of natamycin was measured in water and in the water-miscible solvent DMSO. For this, 240.6 mg and 94.3 mg of natamycin at a purity of 95% (DSM) were diluted in 50 ml of water and DMSO, respectively. The mixtures were sonicated for 30 minutes and analysed by HPLC. The HPLC system was an Agilent 1100 system. The column used was a ACE C18 RP column, 250×4.6 mm with pore size 5 μm. The mobile phase consisted of 1 g ammonium chloride and 3 g ammonium acetate dissolved in 760 mL water, and mixed with 240 mL acetonitrile and 5 mL tetrahydrofuran (THF). The speed of the flow was 3.0 ml/min and the column temperature was 25° C. The injection volume was 20 μL. Natamycin was detected with a spectrophotometer at a wavelength of 303 nm. All samples were centrifugated and filtered through 0.45 μm HPLC filters before analysis. The amount of dissolved natamycin measured in water and DMSO were 32 mg/kg and 2571 mg/kg, respectively (see Table 12).
# For the water-miscible solvent Purasolv® EL, and the water-immiscible solvents BL and EHL, natamycin was added until it no longer dissolved. The mixtures were then filtered and analysed by HPLC. The amount of dissolved natamycin were 832, 211, and 271 mg/kg for EL, BL, and EHL, respectively (Table 12).
# [4] = tested on: Pythium ultimum; test: Emergence of coated spinach seeds in artificially infected soil; format: in vivo; settings: natamycin 0.25, BL 0, thymol 0 mg/g seeds, 6 days after sowing
# Method: Spinach seeds were placed in soil that was artificially infected (see below for method).
# Soil infection was obtained via incubation of soil with infected, killed rye seeds. […] The dead rye seeds were infected with Pythium ultimum PDA plugs (circular segments of PDA, covered with freshly fully grown Pythium ultimum mycelium, which were cut out of a petri dish with the broad side of a yellow pipette tip (Greiner Bio-One, 200 μl tips) with a diameter of 5 mm). Three P. ultimum agar plugs were placed in the 500 ml jar containing the 50 g autoclaved (dead) rye seeds, which was further incubated at 22° C. for one week (16 h day light, 8 hours dark). To prepare the infected soil, potting soil (Tuinaarde, ophoog grond, purchased from Welkoop) were placed in round transparent plastic containers (9 cm in diameter, 4.5 cm high, volume 250 ml). Ten infected rye seeds, that acted as a carrier for P. ultimum, were placed in each round plastic container. To treat the spinach seeds, 77.8 μl of treatment mix (see below) was added to 1 g of seeds in a plastic container. The seeds were shaken and let to dry. Once dried, 20 treated spinach seeds were added to the inoculated soil. The rye seeds and spinach seeds were mixed into the soil, so that both seed types were homogenously distributed within the soil as well as covered by the soil. […] Emergence of the seedlings was assessed. […]
# [5] = tested on: Pythium ultimum; test: Emergence of coated radish seeds in artificially infected soil; format: in vivo; settings: natamycin 0.05, thymol 0 mg/g seeds, 2 days after sowing
# Method: Soil infection was obtained via incubation of soil with infected, killed rye seeds. For this, 50 g of rye seeds and 50 ml water were put into a 500 ml glass jar, which was autoclaved twice (121° C., 15 min, 15 psi). The dead rye seeds were infected with Pythium ultimum PDA plugs (circular segments of PDA, covered with freshly fully grown Pythium ultimum mycelium, which were cut out of a petri dish with the broad side of a yellow pipette tip (Greiner Bio-One, 200 μl tips) with a diameter of 5 mm). Three P. ultimum agar plugs were placed in the 500 ml jar containing the 50 g autoclaved (dead) rye seeds, which was further incubated at 22° C. for one week (16 h day light, 8 hours dark). To prepare the infected soil, potting soil (Tuinaarde, ophoog grond, purchased from Welkoop) were placed in round transparent plastic containers (9 cm in diameter, 4.5 cm high, volume 250 ml). Ten infected rye seeds, that acted as a carrier for P. ultimum, were placed in each round plastic container. […] The seeds were shaken and let to dry. […] The containers were closed with transparent lids and placed into a growth cabinet with the following growth conditions: 16 h day light, 22° C. constant temperature, 70% humidity. Emergence of the seedlings was assessed. For each treatment 3 pots were used, resulting in 3 replicates. […]
# [6] = natamycin-solvent 0-12.5 ppm, 1 day after plug
# [7] = natamycin-solvent 0-25 ppm, 1 day after plug
# [8] = natamycin-solvent 0-250 ppm, 1 day after plug
# [9] = natamycin-solvent 0-125 ppm, 2 days after plug, Tables 4-5
# [10] = natamycin-solvent 0-250 ppm, 2 days after plug, Tables 4-5
# [11] = natamycin-solvent 0-500 ppm, 2 days after plug, Tables 4-5
# [12] = natamycin-solvent 0-12.5 ppm, 2 days after plug
# [13] = natamycin-solvent 0-25 ppm, 2 days after plug
# [14] = natamycin-solvent 0-250 ppm, 2 days after plug
compound,measurement,setting,value
"CC(O)C(=O)N(C)C (stereo not shown) [Agnique ® AMD 3L, dimethyllactamide]",Avg infected area,[1]; [6],1220.5 mm^2
same,Observed %,[1]; [6],10.31%
same,Avg infected area,[1]; [7],1116.3 mm^2
same,Observed %,[1]; [7],17.97%
same,Avg infected area,[1]; [8],1278.7 mm^2
same,Observed %,[1]; [8],6.04%
"CC(O)C(=O)N(C)C (stereo not shown) [DMAC, dimethyllactamide]",Avg infected area,[1]; [6],1251.6 mm^2
same,Observed %,[1]; [6],6.73%
same,Avg infected area,[1]; [8],1316.1 mm^2
same,Observed %,[1]; [8],1.93%
"C[S+](C)[O-] [DMSO, Dimethyl Sulfoxide]",Avg infected area,[1]; [9],5247.969 mm2
same,Avg infected area,[1]; [10],5238.583 mm2
same,Avg infected area,[1]; [11],5129.162 mm2
same,Avg infected area,"[1]; natamycin-solvent 0-1000 ppm, 2 days after plug, Tables 4-5",4475.89 mm2
"CCCCC(CC)COC(=O)[C@H](C)O (stereo partly drawn) [EHL, 2-ethylhexyl L-lactate]",Avg infected area,[2]; natamycin-solvent 0-0.5 ppm,1740.142 mm2
same,Observed %,[2]; natamycin-solvent 0-0.5 ppm,11.74%
same,Avg infected area,"[1]; natamycin-solvent 0-125 ppm, 1 day after plug, Tables 6-7",290.1899 mm2
same,Avg infected area,"[1]; natamycin-solvent 0-250 ppm, 1 day after plug, Tables 6-7",34.78 mm2
"CCOC(=O)[C@H](C)O [EL, ethyl L-lactate]",Avg infected area,[2]; natamycin-solvent 0-0.5 ppm,1390.376 mm2
same,Observed %,[2]; natamycin-solvent 0-0.5 ppm,29.48%
same,Avg infected area,"[1]; natamycin-solvent 0-12.5 ppm, 1 day after plug, Tables 6-7",625.9774 mm2
same,Avg infected area,"[1]; natamycin-solvent 0-25 ppm, 1 day after plug, Tables 6-7",574.2358 mm2
same,Avg infected area,"[1]; natamycin-solvent 0-50 ppm, 1 day after plug, Tables 6-7",619.378 mm2
"CCO [EtOH, Ethanol]",Avg infected area,[2]; natamycin-solvent 0-0.5 ppm,1602.867 mm2
same,Observed %,[2]; natamycin-solvent 0-0.5 ppm,18.70%
same,Avg infected area,[1]; [9],5488.804 mm2
same,Avg infected area,[1]; [10],5286.064 mm2
same,Avg infected area,[1]; [11],4366.453 mm2
C=CCCCCCCCC(=O)N(C)C [Hallcomid ® 1025],Avg infected area,[1]; [12],3666.2 mm^2
same,Observed %,[1]; [12],30.89%
same,Avg infected area,[1]; [13],2118.6 mm^2
same,Observed %,[1]; [13],60.06%
same,Avg infected area,[1]; [14],0 mm^2
same,Observed %,[1]; [14],100.00%
C[C@@H]1C/C=C/C=C/C=C/C=C/[C@H](O[C@@H]2O[C@H](C)[C@@H](O)[C@H](N)[C@@H]2O)C[C@@H]2O[C@](O)(C[C@@H](O)C[C@H]3O[C@@H]3/C=C/C(=O)O1)C[C@H](O)[C@H]2C(=O)O [Natamycin],Natamycin concentration (amount of dissolved natamycin),[3]; in 2-ethylhexyl L-lactate (Purasolv EHL),271 mg/kg
same,Natamycin concentration (amount of dissolved natamycin),[3]; in DMSO,2571 mg/kg
same,Natamycin concentration (amount of dissolved natamycin),[3]; in ethyl L-lactate (Purasolv EL),832 mg/kg
same,Natamycin concentration (amount of dissolved natamycin),[3]; in n-butyl L-lactate (Purasolv BL),211 mg/kg
same,Natamycin concentration (amount of dissolved natamycin),[3]; in water,32 mg/kg
same,Avg germination,[4],18.3
same,Observed %,[4],37.50%
same,Avg infected area,[2]; natamycin-solvent 0.5-0 ppm,1183.171 mm2
same,Observed %,[2]; natamycin-solvent 0.5-0 ppm,39.99%
same,Avg infected area,"[1]; natamycin-solvent 25-0 ppm, 2 days after plug, Tables 4-5",4397.811 mm2
same,Avg infected area,"[1]; natamycin-solvent 50-0 ppm, 1 day after plug, Tables 6-7",563.7967 mm2
same,Avg infected area,"[1]; natamycin-solvent 50-0 ppm, 2 days after plug, Tables 4-5",4891.484 mm2
same,Avg infected area,"[1]; natamycin-solvent 100-0 ppm, 2 days after plug, Tables 4-5",4435.301 mm2
same,Avg infected area,"[1]; natamycin-solvent 200-0 ppm, 2 days after plug, Tables 4-5",5059.918 mm2
same,Avg germination,[5],41.7
same,Observed %,[5],13.64%
Xylene,Avg infected area,[1]; [13],5371.2 mm^2
same,Observed %,[1]; [13],1.35%
